# Results reported in patent US9644019B2, “Compounds for treating cardiac damage after ischaemia/reperfusion” (priority 2010, dated 2017).
# No end group written: not given here.
# Columns and labels:
# EMMPRIN promoter = EMMPRIN promoter luciferase reporter (pEMMPRIN-WT), transient transfection of cardiomyocytes; assay type: cell-based, mouse; conditions: for EMMPRIN promoter transcriptional activity: cardiomyocytes transiently transfected with pEMMPRIN-WT
# Protocol: To clone the mouse EMMPRIN promoter, commercial chromosome BAC CH29-603O5 (which contains part of murine chromosome 10), from CHORI (Children's Hospital Oakland Research Institute) was used as a template in PCR reactions with the following oligonucleotides:
# The resulting PCR fragment was cloned into the pGL3-Basic vector (Promega) at 5′ position to the luciferase reporter gene (hereinafter referred to as pEMMPRIN-WT).
# The transient DNA transfection experiments were carried out by means of using the LIPOFECTAMINE (catatonic-lipid transfection reagent) 2000 reagent as previously described by the manufacturer. The luciferase content in the transfected cells was measured as previously described [Zaragoza C et al. Molecular pharmacology 2002; 62:927-935]. In summary, the cells were transiently transfected with 1 microgram of DNA and 10 μl of LIPOFECTAMINE (catatonic-lipid transfection reagent) 2000 in OPTIMEM culture medium (a modification of Eagle's Minimum Essential Media, buffered with HEPES and sodium bicarbonate, and supplemented with hypoxanthine, thymidine, sodium pyruvate, L-glutamine, trace elements, and growth factors) for 4 hours, after which time they were washed and incubated with fresh culture medium (MEM/10% FCS) for 16 hours. Furthermore, as a control, the cells were co-transfected with a plasmid containing the constitutively active promoter of cytomegalovirus fused with the R-Luciferase gene (Renilla), used as a control. Each sample was therefore evaluated for the content of both P-(firefly) and R-luciferase. […] of the gene product of the reporter gene of the co-transfected control plasmid. The results were normalized for R-Luciferase content.
# To analyze in depth the repressive effect of NO on the EMMPRIN transcription, the first 1000 bps of the regulatory region of the EMMPRIN gene, fused to the luciferase reporter gene (pEMMPRIN-WT), were cloned.
# iNOS = target: T1, iNOS (Mus musculus, UniProt P29477); assay: Coronary ischemia/reperfusion with pharmacological iNOS inhibition in iNOS wild-type mice; assay type: in vivo
# T1 construct: tissue The Jackson Laboratories (mice); host or cells: living wild-type mice; heart after coronary ischemia/reperfusion
# T1 sequence (P29477 1-1144): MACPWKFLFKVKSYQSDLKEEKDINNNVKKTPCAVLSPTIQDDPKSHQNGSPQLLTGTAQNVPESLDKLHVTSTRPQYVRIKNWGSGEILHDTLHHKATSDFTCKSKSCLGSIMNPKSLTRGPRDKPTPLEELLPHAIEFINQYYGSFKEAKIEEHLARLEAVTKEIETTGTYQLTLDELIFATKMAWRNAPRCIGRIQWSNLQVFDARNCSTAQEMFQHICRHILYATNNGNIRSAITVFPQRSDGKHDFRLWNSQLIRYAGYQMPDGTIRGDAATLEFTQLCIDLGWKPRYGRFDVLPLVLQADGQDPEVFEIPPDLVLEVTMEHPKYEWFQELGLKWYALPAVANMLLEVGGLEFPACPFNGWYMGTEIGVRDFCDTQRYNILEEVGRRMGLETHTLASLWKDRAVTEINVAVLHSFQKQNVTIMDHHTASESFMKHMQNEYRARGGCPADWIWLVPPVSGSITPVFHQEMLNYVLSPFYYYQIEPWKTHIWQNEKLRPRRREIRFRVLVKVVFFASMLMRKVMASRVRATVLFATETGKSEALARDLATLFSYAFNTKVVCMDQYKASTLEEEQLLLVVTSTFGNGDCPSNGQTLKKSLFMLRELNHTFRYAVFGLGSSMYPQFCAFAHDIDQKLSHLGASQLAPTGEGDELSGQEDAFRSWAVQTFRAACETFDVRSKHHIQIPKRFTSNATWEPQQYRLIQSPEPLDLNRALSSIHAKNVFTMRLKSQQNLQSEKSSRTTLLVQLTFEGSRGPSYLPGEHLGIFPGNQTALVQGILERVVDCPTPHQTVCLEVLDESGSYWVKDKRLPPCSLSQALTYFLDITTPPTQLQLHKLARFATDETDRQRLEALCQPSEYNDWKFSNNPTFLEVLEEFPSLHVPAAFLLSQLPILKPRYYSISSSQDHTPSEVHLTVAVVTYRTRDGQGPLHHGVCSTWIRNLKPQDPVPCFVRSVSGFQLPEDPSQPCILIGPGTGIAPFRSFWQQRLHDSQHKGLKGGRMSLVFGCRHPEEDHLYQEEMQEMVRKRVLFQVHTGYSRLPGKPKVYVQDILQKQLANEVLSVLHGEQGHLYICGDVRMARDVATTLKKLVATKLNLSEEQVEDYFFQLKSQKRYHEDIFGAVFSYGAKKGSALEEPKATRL
# Protocol: Ischemia was induced by means of the coronary artery ligation in the manner detailed below: twelve week old mice were anesthetized intraperitoneally by means of using ketamine/xylazine (100 mg/kg/10 mg/kg, respectively), intubated with a 1 mm steel tube, and ventilated (2 ml, 80 pulses/minute). After this process, the chest of the mice was opened between the second and third ribs, being kept open by means of the aid of a retractor for mice. The pericardium was then opened to subsequently temporarily ligate the left coronary artery in a region close to its branch by means of using a 6-0 silk suture and for a period of 30 minutes. Evidence of coronary occlusion was clearly shown by means of the discoloration of the left ventricle after the arterial ligation. After 30 minutes, the ligation is removed, the chest closed and the skin sutured. Additionally, a group of control animals (sham) were included in the assays, in which the same method was carried out with the exception of the coronary artery occlusion. To inhibit iNOS in vivo, the iNOS wild-type mice were injected in the tail vein with 2 mg/kg/day of the pharmacological inhibitor of iNOS, 1400W, 30 minutes before ischemia and 24 hours after ischemia/reperfusion. […] To evaluate the effect of anti-EMMPRIN on the ischemic process/reperfusion, the antibodies were administered intravenously for four days before the surgical procedure, after which time the infarct size, cardiac function and EMMPRIN and MMP-9 expression were evaluated.
# The heart of the animals was included in paraffin to subsequently obtain sections 4 microns thick as previously described [Tarin et al. mentioned ad supra]. The morphology of the heart was viewed by means of staining with hematoxylin and eosin, whereas collagen deposition was monitored by means of Masson's trichrome staining. […]
# Additionally, nitration was detected by means of using anti-3-Nitrotyrosine in sections isolated from those same animals, confirming that the exogenously supplied NO was present in the hearts of the animals treated during the time of the experiment (FIG. 2D, right).
# EMMPRIN mRNA [1] = assay: EMMPRIN mRNA, quantitative real-time RT-PCR in HL1 cardiomyocytes; assay type: cell-based, mouse; conditions: cardiomyocytes in culture, 100 μM DETA-NO
# Protocol: (§1) (A) Quantitative real-time RT-PCR showing EMMPRIN expression in the hearts of wild-type and iNOS knockout animals after ischemia/reperfusion (n=3 in triplicate, mean±SD *p<0.05 vs iNOS null−). (B) Quantitative real-time RT-PCR showing EMMPRIN expression in HL1 cardiomyocytes in response to the exogenous administration of 100 μM DETA-NO (n=3, mean±SD *p<0.05). (C) Quantitative real-time RT-PCR showing EMMPRIN expression in RAW […] macrophages in culture in response to the exogenous administration of 100 μM of DETA-NO, endogenous NO production (50 μM LPS), or iNOS inhibition by means of adding 100 μM 1400W (n=3 mean±SD). (D) Stability assay of EMMPRIN mRNA in HL-1 cardiomyocytes (left) and in RAW […] macrophages (right) (n=3, mean±SD *p<0.05).
# (§2) The HL1 cardiomyocyte cell line was donated by Dr. Antonio Bernad and cultured as described [Ruiz-Meana M et al. Cardiovascular research 2006; 71:715-724]. The RAW […] murine macrophage line was cultured as described [Tarin C et al. Arteriosclerosis, thrombosis, and vascular biology 2009; 29:27-32].
# EMMPRIN mRNA [2] = assay: EMMPRIN mRNA, quantitative real-time RT-PCR in RAW macrophages; assay type: cell-based, murine; conditions: RAW macrophage cell line, 100 μM DETA-NO
# Protocol: as §1, §2
# EMMPRIN mRNA [3] = assay: EMMPRIN mRNA stability assay (actinomycin D) in HL-1 cardiomyocytes; assay type: cell-based, mouse; conditions: cardiomyocyte cell line, over time
# Protocol: (§3) For this assay, cells were incubated in wells […] in diameter and incubated in the presence of 10 μM of actinomycin D for 16 hours, after which time the cells were treated with diethylenetriamine-NO (DETA-NO) at different times. The RNA of the different experiment times was isolated and both for EMMPRIN and for GAPDH (as a control), their mRNAs were evaluated by means of quantitative real-time RT-PCR.
# EMMPRIN mRNA [4] = assay: EMMPRIN mRNA stability assay (actinomycin D) in RAW macrophages; assay type: cell-based, murine
# Protocol: as §3
# [5] = system: MAEC cells (mouse aortic endothelial cells); assay: Internalization of AP-9 nanoparticles by MAEC cells and co-localization with EMMPRIN; assay type: cell-based; conditions: for internalization into MAEC cells: overnight incubation
# Protocol: The MAEC cells were incubated overnight with the AP-9 nanoparticles (NP-AP-9) (20 μg/ml) (right panel) or with non-loaded nanoparticles (NP-NT) (left panel). The MAEC cells were fixed, and EMMPRIN expression was detected using an anti-EMMPRIN antibody. Co-localization between the NP-AP-9 signal and the EMMPRIN signal was found in MAEC cells treated with NP-AP-9 (right panel), but this co-localization was not found in the control nanoparticles. The cores were stained with DAPI.
# The MAEC cells were cultured in a black 96-well plate and incubated overnight with different concentrations of nanoparticles loaded with AP-9 (NP-AP9) or nanoparticles without AP-9 (NP-NT). Fluorescence was measured using an IVIS imaging system. The graph on the right represents the intensity of the fluorescence signal of the image on the left.
# Nanoparticles containing AP-9 have therapeutic value, because EMMPRIN is inhibited and tissue damage due to proteolytic enzyme activation is reduced.
compound,measurement,setting,value
"CC(=O)NC(C(=O)O)C(C)(C)SN=O (racemic) [SNAP, S-Nitroso-N-acetyl-D,L-penicillamine]",EMMPRIN promoter transcriptional activity,EMMPRIN promoter,results similar to those generated with DETA-NO
Nc1nc2c(nc(Br)n2[C@@H]2O[C@@H]3COP(=O)(O)O[C@H]3[C@H]2O)c(=O)[nH]1 [8-Br-cGMP],EMMPRIN promoter transcriptional activity,EMMPRIN promoter,same effect as the NO donor
CC(=N)NCc1cccc(CN)c1 [1400W],infarct size,"iNOS; 1400W 2 mg/kg/day tail vein, vs control mice",significantly increase
same,MMP-9 levels,"iNOS; 1400W 2 mg/kg/day, WT 1400WC vs WT 1400W",increase
same,EMMPRIN levels,"iNOS; 1400W 2 mg/kg/day, vs control mice",increase
"NCCN(CCN)/[N+]([O-])=N/O [DETA-NO, diethylenetriamine-NO]",EMMPRIN mRNA levels,EMMPRIN mRNA [1],significantly reduced
same,EMMPRIN gene expression,EMMPRIN mRNA [2],did not induce a significant effect
same,EMMPRIN mRNA stability,EMMPRIN mRNA [3],significant reduction
same,EMMPRIN mRNA stability,EMMPRIN mRNA [4],no effect whatsoever
O=c1c2nc(Br)n([C@@H]3O[C@@H]4CO[P@@](O)(=S)O[C@H]4[C@H]3O)c2nc2[nH]c(-c3ccccc3)cn12 [Rp-8-Br-PET-cGMPS],EMMPRIN promoter transcriptional activity,EMMPRIN promoter,significant increase
same,EMMPRIN promoter activity in combination with NO,"EMMPRIN promoter; cardiomyocytes, pEMMPRIN-WT, PET + NO (100 μM DETA-NO)",partially restoring the negative effect of NO
NCCCNCCCCN(CCCN)/[N+]([O-])=N/O [Spermine-NONOate],EMMPRIN promoter transcriptional activity,EMMPRIN promoter,results similar to those generated with DETA-NO
"NP-AP-9: nanoparticles with iron oxide core, single lipid-PEG layer with fluorochrome, and AP-9 peptide bound to the surface (YKLPGHHHHYRP; also: bound to surface of iron oxide nanoparticles with lipid-PEG layer and fluorochrome, attachment site not given here)",co-localization of nanoparticle signal with EMMPRIN signal,[5]; 20 μg/ml overnight,Co-localization
same,dose dependence of internalization (fluorescence signal),"[5]; 96-well plate, different concentrations overnight, IVIS imaging",dose-dependent manner
same,internalization into MAEC cells,[5],internalization
same,internalization into MAEC cells,[5]; listed as Nanoparticles containing AP-9,could be internalized
